# Reference: patent US20260078135A1, “POLYCYCLIC QUINAZOLINES FOR INHIBITION OF ERBB2” (Enliven Inc., priority 2022, published 2026)
# Assays:
# [1] = target: T1, phosphorylated EGFR (pEGFR) (Homo sapiens, UniProt P00533); assay: Detection of phosphorylated EGFR (pEGFR) by AlphaLISA in EGF-stimulated A431 cells; type: cell-based; conditions: A431 cells (10% FBS), 4 hours incubation, EGF 30 ng/mL for 10 minutes
# T1 construct: performed to measure phosphorylated EGFR levels using A431 cells (10% FBS); endogenous in cells; host or cells: A431
# Protocol: Enzyme-linked immunosorbent assays (ELISA) were performed to measure phosphorylated EGFR levels using A431 cells (10% FBS). A431 (1.0*10^4 cells/40 μl/well) cells were seeded in 384 well. Compounds were dissolved in DMSO, serially diluted in DMSO and then were added, mixed, and incubated for 4 hours at 37° C., 5% C02. Following the 4-hours incubation, cells were stimulated for 10 minutes with EGF (Invitrogen, cat #PHG0311) at a final concentration of 30 ng/mL in the incubator. The media was aspirated and cells were lysed in 10 μL lysis buffer with protease and phosphatase inhibitors (PerkinElmer, cat #ALSU-PEGFR-A50K). The plates were placed on a shaker for 5 μminutes and then incubated for 30 min at 4° C. for complete lysis. The lysate was transferred to an Optiplate (Perkin Elmer, cat #6007290).
# Acceptor mix (PerkinElmer, cat #ALSU-PEGFR-A50K) was prepared just before use and 5 μL was dispensed to all the wells, followed by a 1.5-2 h incubation at room temperature in dark. The donor mix (PerkinElmer, cat #ALSU-PEGFR-A50K) was prepared under low light conditions prior to use and 5 μl of donor mix was added to all the wells under subdued lighting or green filters. The plates were placed on a shaker for 5 μmin, sealed, and incubated overnight at room temperature in dark. Plates were read on the Envision (PerkinElmer) using standard AlphaLISA settings.
# The percentage of inhibition on EGFR phosphorylation was calculated following equation: % Inhibition=100×(LumHC−LumSample)/(LumHC−LumLC). The low and high controls (LC/HC) are generated from lysate from wells with cells treated with DMSO or […] Staurosporine (BioAustralis, cat #BIA-S1086), […]. IC50 values were calculated by fitting the Curve using XLfit (v5.3.1.3), equation 201: Y=Bottom+(Top−Bottom)/(1+10^((Log IC50−X)*HillSlope)).
# [2] = target: T2, phosphorylated ERBB2 (pERBB2) (Homo sapiens, UniProt P04626); assay: Detection of phosphorylated ERBB2 (pERBB2) by ELISA in BT-474 cells; type: cell-based; conditions: four hour incubation
# T2 construct: endogenous in cells; host or cells: BT-474
# Protocol: BT-474 cells were seeded into a 96-well at 2.0*10^4 cells/100 μl/well. Compounds were dissolved and serially diluted in DMSO. The compounds were then were added, mixed, and incubated for four hours at 37° C., 5% CO2. Compounds were added using four-fold dilutions at final concentrations ranging from 10 μM to 0.01 nM. Following the four hour incubation with compounds, cell lysates were prepared. Plates were centrifuged for 5 μmin at 3000 RPM, and supernatant was removed from each well. Cells were washed 3 times by resuspension in 150 μl PBS, followed by centrifugation and removal of the supernatant, as above. 100 μl of cell lysis buffer (Boston BioProducts, cat #BP-115D) supplied with 1× complete ULTRA cocktail inhibitor (Thermo ScientificTM, cat #78443) was then added to the washed cells. Cells were incubated with lysis buffer for 1 hour at 4° C., and then stored at -80° C. Enzyme-linked immunosorbent assays (ELISA) were performed to measure phosphorylated ERBB2 levels. […] The next day, plates were washed with PBS+0.05% Tween20 (PBST). 150 μl of 5% BSA blocking solution was added for 1 hour at room temperature, with shaking. Plates were washed with PBST. Cell lysates were thawed and 100 μl of lysate was added to the ELISA plate. The plates were incubated for 2 hours at room temperature, with shaking. ELISA plates were then washed with PBST and 100 μl of an HRP-labeled detection antibody that binds phosphorylated tyrosine (R&D Systems, cat #841913) was added to each well. Plates were incubated for 1 hour at room temperature, with shaking. Plates were then washed with PBST, and 100 μl TMB substrate solution (R&D Systems, cat #DY999) was added. Plate were incubated in the dark for 20 minutes at room temperature. 50 μl of Stop solution (R&D Systems, cat #DY994) (50 μl) was added to each well and mixed. Optical density at 450 nm was read on an EnSpire plate reader (Perkin Elmer). The remaining kinase activity by calculated using the following formula: % Relative activity=100×([…]). The low and high control values (“LC” and “HC”) were generated from lysate from wells without cells or with cells treated with 0.1% DMSO, respectively.
# T1 sequence (P00533 25-1210): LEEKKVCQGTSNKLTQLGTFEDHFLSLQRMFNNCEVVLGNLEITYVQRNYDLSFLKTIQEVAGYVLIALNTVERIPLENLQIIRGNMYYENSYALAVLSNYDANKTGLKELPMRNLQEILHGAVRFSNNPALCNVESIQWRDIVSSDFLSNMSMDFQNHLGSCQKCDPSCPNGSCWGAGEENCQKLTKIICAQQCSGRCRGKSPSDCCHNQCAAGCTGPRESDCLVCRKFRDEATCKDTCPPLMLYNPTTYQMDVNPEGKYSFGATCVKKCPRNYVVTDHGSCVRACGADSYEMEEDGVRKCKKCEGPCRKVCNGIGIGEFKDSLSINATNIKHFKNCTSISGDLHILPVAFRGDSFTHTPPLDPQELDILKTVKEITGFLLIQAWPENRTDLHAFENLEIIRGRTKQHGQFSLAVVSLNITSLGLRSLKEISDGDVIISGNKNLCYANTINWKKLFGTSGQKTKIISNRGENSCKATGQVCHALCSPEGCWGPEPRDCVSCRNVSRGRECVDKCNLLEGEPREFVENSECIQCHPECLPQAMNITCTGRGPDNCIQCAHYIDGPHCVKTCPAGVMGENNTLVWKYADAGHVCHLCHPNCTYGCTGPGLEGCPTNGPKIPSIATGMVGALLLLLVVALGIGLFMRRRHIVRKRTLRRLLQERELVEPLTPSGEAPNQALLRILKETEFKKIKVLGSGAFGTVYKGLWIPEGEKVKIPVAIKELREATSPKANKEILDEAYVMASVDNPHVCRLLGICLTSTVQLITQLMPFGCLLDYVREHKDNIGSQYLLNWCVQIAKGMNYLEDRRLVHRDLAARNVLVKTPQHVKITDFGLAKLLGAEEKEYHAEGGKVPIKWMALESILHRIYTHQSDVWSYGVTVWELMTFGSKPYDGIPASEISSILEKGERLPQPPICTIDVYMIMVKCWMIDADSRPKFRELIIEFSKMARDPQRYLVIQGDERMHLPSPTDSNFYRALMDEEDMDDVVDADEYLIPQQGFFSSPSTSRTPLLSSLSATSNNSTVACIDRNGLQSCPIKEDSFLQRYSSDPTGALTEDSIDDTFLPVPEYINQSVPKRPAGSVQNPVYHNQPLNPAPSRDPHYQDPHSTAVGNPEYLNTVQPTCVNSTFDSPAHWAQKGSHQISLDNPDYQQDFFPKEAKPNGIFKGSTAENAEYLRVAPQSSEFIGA
# T2 sequence (P04626 23-1255): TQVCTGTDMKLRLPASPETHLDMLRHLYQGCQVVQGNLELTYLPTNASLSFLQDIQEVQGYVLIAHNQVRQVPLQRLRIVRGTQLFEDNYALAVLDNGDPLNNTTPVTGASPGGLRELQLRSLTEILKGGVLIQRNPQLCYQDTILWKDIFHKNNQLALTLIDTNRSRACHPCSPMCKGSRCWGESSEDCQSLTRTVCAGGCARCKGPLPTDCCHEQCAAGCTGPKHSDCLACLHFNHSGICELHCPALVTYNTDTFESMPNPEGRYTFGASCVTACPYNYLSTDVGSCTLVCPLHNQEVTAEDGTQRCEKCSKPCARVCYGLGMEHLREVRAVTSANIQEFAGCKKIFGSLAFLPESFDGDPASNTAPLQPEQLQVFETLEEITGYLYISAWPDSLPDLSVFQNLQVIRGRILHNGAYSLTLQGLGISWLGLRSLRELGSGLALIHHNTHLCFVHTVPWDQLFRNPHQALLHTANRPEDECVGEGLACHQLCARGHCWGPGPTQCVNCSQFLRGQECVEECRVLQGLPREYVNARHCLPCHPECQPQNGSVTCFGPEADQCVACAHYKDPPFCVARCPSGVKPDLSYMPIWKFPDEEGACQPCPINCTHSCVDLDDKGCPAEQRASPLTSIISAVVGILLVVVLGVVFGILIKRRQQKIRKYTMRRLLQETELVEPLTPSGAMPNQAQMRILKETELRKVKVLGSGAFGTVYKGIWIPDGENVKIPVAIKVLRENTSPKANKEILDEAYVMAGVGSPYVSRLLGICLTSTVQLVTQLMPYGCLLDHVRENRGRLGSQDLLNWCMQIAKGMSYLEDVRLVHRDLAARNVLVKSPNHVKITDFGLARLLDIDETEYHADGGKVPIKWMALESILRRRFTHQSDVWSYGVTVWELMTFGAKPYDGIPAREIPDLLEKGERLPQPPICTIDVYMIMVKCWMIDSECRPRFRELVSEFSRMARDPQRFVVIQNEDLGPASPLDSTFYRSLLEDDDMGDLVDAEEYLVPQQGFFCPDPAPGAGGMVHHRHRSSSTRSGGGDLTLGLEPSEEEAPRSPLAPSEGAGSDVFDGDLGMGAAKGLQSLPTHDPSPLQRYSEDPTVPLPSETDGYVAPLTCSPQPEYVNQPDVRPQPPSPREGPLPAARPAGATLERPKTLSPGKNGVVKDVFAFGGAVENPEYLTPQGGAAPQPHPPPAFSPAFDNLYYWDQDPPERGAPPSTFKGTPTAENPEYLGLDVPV
IC50 [1],IC50 [2],Structure (SMILES)
> 10 µM,37.1 nM,"Cc1cc(Nc2ncnc3cnc4c(c23)OC[C@H]2COCCN42)ccc1Oc1ccn2ncnc2c1 [Compound 106, (R)—N-(4-([1,2,4]triazolo[1,5-a]pyridin-7-yloxy)-3-methylphenyl)-6a,7,9,10-tetrahydro-6H-[1,4]oxazino[4,3-d]pyrimido[5′,4′:4,5]pyrido[3,2-b][1,4]oxazin-4-amine]"
> 10 µM,211 nM,"Cc1c(Oc2ccn3ncnc3c2)ccc(Nc2ncnc3ccc4c(c23)OC[C@H]2COCCN42)c1F [Compound 99, (R)—N-(4-([1,2,4]triazolo[1,5-a]pyridin-7-yloxy)-2-fluoro-3-methylphenyl)-6a,7,9,10-tetrahydro-6H-[1,4]oxazino[4′,3′:4,5][1,4]oxazino[2,3-f]quinazolin-4-amine]"
> 10 µM,82.2 nM,"Cc1cc(Nc2ncnc3ccc4c(c23)OC[C@H]2COCCN42)c(F)cc1Oc1ccn2ncnc2c1 [Compound 100, (R)—N-(4-([1,2,4]triazolo[1,5-a]pyridin-7-yloxy)-2-fluoro-5-methylphenyl)-6a,7,9,10-tetrahydro-6H-[1,4]oxazino[4′,3′:4,5][1,4]oxazino[2,3-f]quinazolin-4-amine]"
> 10 µM,227 nM,"Cc1cc(Nc2ncnc3ccc4c(c23)OC[C@H]2CN4CCO2)ccc1Oc1ccn2ncnc2c1 [Compound 71, (3R)—N-(4-([1,2,4]triazolo[1,5-a]pyridin-7-yloxy)-3-methylphenyl)-2,3,5,6-tetrahydro-3,7-methano[1,4,7]dioxazonino[5,6-f]quinazolin-13-amine]"
> 10 µM,75.5 nM,"Cc1cc(Nc2ncnc3ccc4c(c23)OC[C@H]2CCCN42)ccc1Oc1ccn2ncnc2c1 [Compound 87, (R)—N-(4-([1,2,4]triazolo[1,5-a]pyridin-7-yloxy)-3-methylphenyl)-6a,7,8,9-tetrahydro-6H-pyrrolo[1′,2′:4,5][1,4]oxazino[2,3-f]quinazolin-4-amine]"
> 10 µM,503 nM,"Fc1cc(Oc2ccn3ncnc3c2)ccc1Nc1ncnc2ccc3c(c12)OC[C@H]1COCCN31 [Compound 101, (R)—N-(4-([1,2,4]triazolo[1,5-a]pyridin-7-yloxy)-2-fluorophenyl)-6a,7,9,10-tetrahydro-6H-[1,4]oxazino[4′,3′:4,5][1,4]oxazino[2,3-f]quinazolin-4-amine]"
> 10 µM,78.2 nM,"Cc1cc(Nc2ncnc3cc4c(nc23)N2CCOC[C@H]2CO4)ccc1Oc1ccc2c(c1)ncn2C [Compound 107, (S)—N-(3-methyl-4-((1-methyl-1H-benzo[d]imidazol-5-yl)oxy)phenyl)-1,2,4a,5-tetrahydro-4H-[1,4]oxazino[4,3-d]pyrimido[4′,5′:5,6]pyrido[3,2-b][1,4]oxazin-11-amine]"
9.52 µM,57.2 nM,"Cc1cc(Nc2ncnc3ccc4c(c23)OC[C@H]2COCCN42)ccc1Oc1ccc2c(c1)ncn2C [Compound 108, (R)—N-(3-methyl-4-((1-methyl-1H-benzo[d]imidazol-5-yl)oxy)phenyl)-6a,7,9,10-tetrahydro-6H-[1,4]oxazino[4′,3′:4,5][1,4]oxazino[2,3-f]quinazolin-4-amine]"

# Continued, molecule first:
Structure (SMILES),IC50 [1],IC50 [2]
"Cc1cc(Nc2ncnc3cc4c(cc23)N2CCNC[C@@H]2CO4)ccc1Oc1ccc2c(c1)ncn2C [Compound 63, (R)—N-(3-methyl-4-((1-methyl-1H-benzo[d]imidazol-5-yl)oxy)phenyl)-1,2,3,4,4a,5-hexahydropyrazino[1′,2′:4,5][1,4]oxazino[3,2-g]quinazolin-11-amine]",> 10 µM,153 nM
"Cc1cc(Nc2ncnc3cc4c(nc23)N2CCN(C)C[C@@H]2CO4)ccc1Oc1ccn2ncnc2c1 [Compound 36, (R)—N-(4-([1,2,4]triazolo[1,5-a]pyridin-7-yloxy)-3-methylphenyl)-3-methyl-1,2,3,4,4a,5-hexahydropyrazino[1,2-d]pyrimido[4′,5′:5,6]pyrido[3,2-b][1,4]oxazin-11-amine]",> 10 µM,234 nM
"Cc1cc(Nc2ncnc3ccc4c(c23)OC[C@H]2CNCCN42)ccc1Oc1ccc2c(c1)ncn2C [Compound 45, (R)—N-(3-methyl-4-((1-methyl-1H-benzo[d]imidazol-5-yl)oxy)phenyl)-6,6a,7,8,9,10-hexahydropyrazino[1′,2′:4,5][1,4]oxazino[2,3-f]quinazolin-4-amine]",> 10 µM,54 nM
"Cc1cc(Nc2ncnc3cc4c(nc23)N2CCN(C)C[C@@H]2CO4)ccc1Oc1ccc2c(c1)ncn2C [Compound 40, (R)-3-methyl-N-(3-methyl-4-((1-methyl-1H-benzo[d]imidazol-5-yl)oxy)phenyl)-1,2,3,4,4a,5-hexahydropyrazino[1,2-d]pyrimido[4′,5′:5,6]pyrido[3,2-b][1,4]oxazin-11-amine]",> 10 µM,153 nM
"Cc1cc(Nc2ncnc3ccc4c(c23)OC[C@@H]2CNCCN42)ccc1Oc1ccc2c(c1)ncn2C [Compound 47, (S)—N-(3-methyl-4-((1-methyl-1H-benzo[d]imidazol-5-yl)oxy)phenyl)-6,6a,7,8,9,10-hexahydropyrazino[1′,2′:4,5][1,4]oxazino[2,3-f]quinazolin-4-amine]",> 10 µM,91.2 nM
"Cc1cc(Nc2ncnc3ccc4c(c23)OC[C@@H]2CN(C)CCN42)ccc1Oc1ccn2ncnc2c1 [Compound 44, (S)—N-(4-([1,2,4]triazolo[1,5-a]pyridin-7-yloxy)-3-methylphenyl)-8-methyl-6,6a,7,8,9,10-hexahydropyrazino[1′,2′:4,5][1,4]oxazino[2,3-f]quinazolin-4-amine]",> 10 µM,218 nM
"Cc1cc(Nc2ncnc3cc4c(cc23)N2CCNC[C@H]2CO4)ccc1Oc1ccn2ncnc2c1 [Compound 57, (S)—N-(4-([1,2,4]triazolo[1,5-a]pyridin-7-yloxy)-3-methylphenyl)-1,2,3,4,4a,5-hexahydropyrazino[1′,2′:4,5][1,4]oxazino[3,2-g]quinazolin-11-amine]",> 10 µM,26.7 nM
"Cc1cc(Nc2ncnc3ccc4c(c23)OC[C@H]2CN(C)CCN42)ccc1Oc1ccc2c(c1)ncn2C [Compound 46, (R)-8-methyl-N-(3-methyl-4-((1-methyl-1H-benzo[d]imidazol-5-yl)oxy)phenyl)-6,6a,7,8,9,10-hexahydropyrazino[1′,2′:4,5][1,4]oxazino[2,3-f]quinazolin-4-amine]",> 10 µM,22.3 nM
"Cc1cc(Nc2ncnc3ccc4c(c23)OC[C@H]2CNCCN42)ccc1Oc1ccn2ncnc2c1 [Compound 41, (R)—N-(4-([1,2,4]triazolo[1,5-a]pyridin-7-yloxy)-3-methylphenyl)-6,6a,7,8,9,10-hexahydropyrazino[1′,2′:4,5][1,4]oxazino[2,3-f]quinazolin-4-amine diformic acid]",> 10 µM,57.7 nM
"Cc1cc(Nc2ncnc3ccc4c(c23)OC[C@H]2CN(C)CCN42)ccc1Oc1ccn2ncnc2c1 [Compound 42, (R)—N-(4-([1,2,4]triazolo[1,5-a]pyridin-7-yloxy)-3-methylphenyl)-8-methyl-6,6a,7,8,9,10-hexahydropyrazino[1′,2′:4,5][1,4]oxazino[2,3-f]quinazolin-4-amine]",> 10 µM,31.5 nM
